Where two headings read alike, the source gives them in different places. Each block holds one compound with its values, some of them ahead of it.
Assays:
[1] = rcm bond
HEK293 NFκB-luc = assay: Counterscreen: HEK293 cells transfected with NFκB-luc reporter construct alone; assay type: cell-based; settings: lowest effective concentration; greater than the highest tested concentration
Protocol: In parallel, a similar dilution series of compound was used (200 nL of compound in 100% DMSO) with 40 μL per well of cells transfected with NFκB-luc reporter construct alone (1.25×10^5 cells/mL). Six hours after incubation at 37° C., 5% CO2, the luciferase activity was determined by adding 15 μl of Steady Lite Plus substrate (Perkin Elmer) to each well and readout performed on a ViewLux ultraHTS microplate imager (Perkin Elmer). Counterscreen data is reported as LEC.

human TLR8 = biological target: T1, human TLR8 (Homo sapiens, UniProt Q9NR97); assay: HEK293 TLR8-NFκB-luc cellular reporter assay; assay type: cell-based; settings: lowest effective concentration; greater than the highest tested concentration
T1 construct: expressed in transfected cells; host or cells: HEK293
T1 sequence (Q9NR97 27-1041): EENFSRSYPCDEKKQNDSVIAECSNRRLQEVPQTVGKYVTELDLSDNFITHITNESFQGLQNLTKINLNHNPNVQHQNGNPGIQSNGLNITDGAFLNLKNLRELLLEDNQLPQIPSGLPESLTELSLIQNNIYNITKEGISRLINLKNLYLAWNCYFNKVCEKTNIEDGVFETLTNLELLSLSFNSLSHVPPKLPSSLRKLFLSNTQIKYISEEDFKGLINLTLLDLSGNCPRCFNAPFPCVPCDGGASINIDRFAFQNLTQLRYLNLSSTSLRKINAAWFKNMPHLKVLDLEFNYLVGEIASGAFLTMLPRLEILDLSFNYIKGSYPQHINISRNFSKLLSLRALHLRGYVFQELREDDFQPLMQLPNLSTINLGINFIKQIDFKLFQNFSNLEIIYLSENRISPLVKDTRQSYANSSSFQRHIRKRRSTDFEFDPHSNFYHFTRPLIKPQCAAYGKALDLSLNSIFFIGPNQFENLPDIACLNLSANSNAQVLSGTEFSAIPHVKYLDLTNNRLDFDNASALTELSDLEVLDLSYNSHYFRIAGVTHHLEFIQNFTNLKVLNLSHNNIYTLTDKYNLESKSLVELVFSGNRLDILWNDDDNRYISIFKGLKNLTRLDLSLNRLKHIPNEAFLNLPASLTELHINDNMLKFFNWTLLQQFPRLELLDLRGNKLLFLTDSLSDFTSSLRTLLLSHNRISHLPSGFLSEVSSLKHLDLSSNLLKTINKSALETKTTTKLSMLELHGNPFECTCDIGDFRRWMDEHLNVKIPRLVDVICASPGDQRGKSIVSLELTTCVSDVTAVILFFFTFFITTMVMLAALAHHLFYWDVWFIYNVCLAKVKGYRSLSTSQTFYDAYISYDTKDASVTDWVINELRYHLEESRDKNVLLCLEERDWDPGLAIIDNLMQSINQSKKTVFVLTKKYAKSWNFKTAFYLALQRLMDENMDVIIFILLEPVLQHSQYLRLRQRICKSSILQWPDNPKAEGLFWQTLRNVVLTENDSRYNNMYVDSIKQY
Protocol: (§1) The ability of compounds to activate human TLR7 and TLR8 was assessed in a cellular reporter assay using HEK293 cells transiently transfected with a TLR7 or TLR8 expression vector and NFκB-luc reporter construct. Briefly, HEK293 cells were grown in culture medium (DMEM supplemented with 10% FCS and 2 mM Glutamine). For transfection of cells in 15 cm dishes, cells were detached with Trypsin-EDTA, transfected with a mix of CMV-TLR7 or TLR8 plasmid (1,700 ng), NFκB-luc plasmid (850 ng) and a transfection reagent and incubated 48 hours at 37° C. in a humidified 5% CO2 atmosphere. Transfected cells were then washed in PBS, detached with Trypsin-EDTA, and resuspended in medium to a density of 1.25×10^5 cells/mL. Forty microliters of cells were then dispensed into each well in 384-well plates, where 200 nL of compound in 100% DMSO was already present. Following 6 hours incubation at 37° C., 5% CO2, the luciferase activity was determined by adding 15 μl of Steady Lite Plus substrate (Perkin Elmer) to each well and readout performed on a ViewLux ultraHTS microplate imager (Perkin Elmer). Dose response curves were generated from measurements performed in quadruplicates. Lowest effective concentrations (LEC) values, defined as the concentration that induces an effect which is at least two fold above the standard deviation of the assay, were determined for each compound.

[2] = tested on: interferon production in human PBMC; assay: Interferon production in human PBMC, read out on HEK-ISRE-luc reporter cells; assay type: cell-based; settings: Homo sapiens, PBMC, 24 h, lowest effective concentration, PBMC incubated overnight with compound, supernatant transferred to HEK-ISRE-luc cells, read-out: PBMC HEK-ISRE-luc (LEC; μM)
Protocol: Activation of human TLR7 results in robust production of interferon by plasmacytoid dendritic cells present in human blood. The potential of compounds to induce interferon was evaluated by determination of interferon in the conditioned media from peripheral blood mononuclear cells (PBMC). The presence of interferon in the samples was determined, using an interferon reporter cell line stably expressing an interferon-stimulated responsive elements (ISRE)-luc reporter construct. The ISRE element with sequence TAGTTTCACTTTCCC (SEQ ID NO: 1) is highly responsive to the STAT1-STAT2-IRF9 transcription factor, which becomes activated upon binding of IFN-I to the IFN receptor. Briefly, PBMCs were prepared from buffy coats of at least two donors using a standard Ficoll centrifugation protocol. Isolated PBMCs were resuspended in RPMI medium supplemented with 10% human AB serum and 2×10^5 cells/well were dispensed into 384-well plates containing compounds (70 μL total volume). After overnight incubation of the PBMCs with the compounds, 10 μL of supernatant was transferred to 384-well plates containing 5×10^3 HEK-ISRE-luc cells/well in 30 μL (plated the day before). Following 24 hours of incubation, activation of the ISRE elements was measured by assaying luciferase activity using 40 μL/well Steady Lite Plus substrate (Perkin Elmer) and measured with ViewLux ultraHTS microplate imager (Perkin Elmer). The stimulating activity of each compound on the HEK-ISRE-luc cells was reported as LEC. The LEC in turn indicates the degree of ISRE activation on transfer of a defined amount of PBMC culture medium. Recombinant interferon alfa-2a (Roferon-A) was used as a standard control compound.

human TLR7 = biological target: T2, human TLR7 (Homo sapiens, UniProt Q9NYK1); assay: HEK293 TLR7-NFκB-luc cellular reporter assay; assay type: cell-based; settings: lowest effective concentration; HEK293 transiently transfected with TLR7 and NFκB-luc; 6 hours incubation
T2 construct: expressed in transfected cells; host or cells: HEK293
T2 sequence (Q9NYK1 27-1049): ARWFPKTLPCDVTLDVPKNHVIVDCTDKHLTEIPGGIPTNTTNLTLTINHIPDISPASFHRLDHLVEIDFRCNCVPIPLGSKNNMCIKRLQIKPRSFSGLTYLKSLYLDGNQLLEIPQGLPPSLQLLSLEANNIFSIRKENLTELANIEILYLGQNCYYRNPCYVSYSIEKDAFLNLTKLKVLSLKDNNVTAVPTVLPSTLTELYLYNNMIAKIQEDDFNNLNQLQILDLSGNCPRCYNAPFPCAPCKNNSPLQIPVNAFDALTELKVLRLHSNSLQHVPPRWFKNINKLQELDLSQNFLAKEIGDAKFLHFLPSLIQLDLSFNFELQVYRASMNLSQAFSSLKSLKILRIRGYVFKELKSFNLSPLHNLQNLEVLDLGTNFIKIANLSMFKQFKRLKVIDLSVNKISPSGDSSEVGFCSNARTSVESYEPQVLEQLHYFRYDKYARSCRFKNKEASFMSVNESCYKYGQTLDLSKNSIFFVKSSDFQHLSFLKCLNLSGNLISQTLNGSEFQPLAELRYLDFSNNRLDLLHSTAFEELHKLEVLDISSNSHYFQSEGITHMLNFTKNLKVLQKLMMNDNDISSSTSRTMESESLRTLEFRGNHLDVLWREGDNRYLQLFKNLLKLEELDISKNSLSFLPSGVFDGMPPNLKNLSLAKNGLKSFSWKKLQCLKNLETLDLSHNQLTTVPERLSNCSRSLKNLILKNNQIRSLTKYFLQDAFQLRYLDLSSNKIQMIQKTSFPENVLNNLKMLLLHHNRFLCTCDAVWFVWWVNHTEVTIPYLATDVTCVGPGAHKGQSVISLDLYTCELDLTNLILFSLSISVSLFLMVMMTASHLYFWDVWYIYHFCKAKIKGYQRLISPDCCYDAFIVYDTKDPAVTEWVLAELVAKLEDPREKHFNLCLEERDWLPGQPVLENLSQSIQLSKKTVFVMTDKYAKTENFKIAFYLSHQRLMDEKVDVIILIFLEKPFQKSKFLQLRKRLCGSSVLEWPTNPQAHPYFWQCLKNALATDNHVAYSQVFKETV
Protocol: as §1

Compound: CCOC(=O)N1CCc2ccc(OC)c(c2)OCC=CCOc2cc1c([N+](=O)[O-])c(N)n2
- ring closure, yield of all isomers ([1]; from C=CCOc1cc(N(CCc2ccc(OC)c(OCC=C)c2)C(=O)OCC)c([N+](=O)[O-])c(N)n1, Grubbs-Hoveyda catalyst 2nd generation (with chlorodicyclohexylborane), 1,2-dichloroethane, 4.24 mM, 120.0 °C, 23.0 h): 25%

Compound: CCOC(=O)N1Cc2cccc(c2)N(C(=O)OC(C)(C)C)CC=CCCOc2cc1c([N+](=O)[O-])c(N)n2
- ring closure, yield of all isomers ([1]; from C=CCCOc1cc(N(Cc2cccc(N(CC=C)C(=O)OC(C)(C)C)c2)C(=O)OCC)c([N+](=O)[O-])c(N)n1, Grubbs catalyst 2nd generation, dichloromethane, 6.93 mM, 25.0 °C, 24.0 h): 67%

Compound: CCOC(=O)N1Cc2cccc(c2)N(C(=O)OC(C)(C)C)CC=CCOc2cc1c([N+](=O)[O-])c(N)n2
- ring closure, yield of all isomers ([1]; from C=CCOc1cc(N(Cc2cccc(N(CC=C)C(=O)OC(C)(C)C)c2)C(=O)OCC)c([N+](=O)[O-])c(N)n1, Grubbs-Hoveyda catalyst 2nd generation (with chlorodicyclohexylborane), 1,2-dichloroethane, 4.1 mM, 120.0 °C, 16.0 h): 40%

Compound: CCOC(=O)N1Cc2cccc(c2)OCC=CCCOc2cc1c([N+](=O)[O-])c(N)n2
- ring closure, yield of all isomers ([1]; from C=CCCOc1cc(N(Cc2cccc(OCC=C)c2)C(=O)OCC)c([N+](=O)[O-])c(N)n1, Grubbs 2nd generation, CH2Cl2, 5.22 mM, 25.0 °C, 20.0 h): 15%

Compound: CCOC(=O)N1Cc2cccc(c2)OCC=CCOc2cc1c([N+](=O)[O-])c(N)n2
- ring closure, yield of all isomers ([1]; from C=CCOc1cccc(CN(C(=O)OCC)c2cc(OCC=C)nc(N)c2[N+](=O)[O-])c1, Hoveyda-Grubbs 2nd generation (with chlorodicyclohexylborane), 1,2-dichloroethane, 3.47 mM, 120.0 °C, 37.0 h): 19%

Compound: CCOC(=O)N1Cc2cccc(c2)OCCC=CCOc2cc1c([N+](=O)[O-])c(N)n2
- ring closure, yield of all isomers ([1]; from C=CCCOc1cccc(CN(C(=O)OCC)c2cc(OCC=C)nc(N)c2[N+](=O)[O-])c1, Grubbs-Hoveyda catalyst 2nd generation (with chlorodicyclohexylborane), 1,2-dichloroethane, 4.18 mM, 120.0 °C, 32.0 h): 36%

Compound: CCOC(=O)N1Cc2ncccc2OCC=CCCOc2cc1c([N+](=O)[O-])c(N)n2
- ring closure, yield of all isomers ([1]; from C=CCCOc1cc(N(Cc2ncccc2OCC=C)C(=O)OCC)c([N+](=O)[O-])c(N)n1, Hoveyda-Grubbs 2nd generation (with chlorodicyclohexylborane), 1,2-dichloroethane, 3.6 mM, 120.0 °C, 3.0 h): 22%

- LEC on HEK293 TLR8-NFκB-luc (human TLR8): > 10 µM
- HEK293 TLR7-NFκB-luc (LEC; μM) (human TLR7): 2.38 µM
Compound: Nc1nc2cc3c1nc(O)n3Cc1cccc(c1)CCCCCO2 [Compound 4]
- LEC on HEK293 NFκB-luc (counterscreen) (HEK293 NFκB-luc): > 10 µM
- minimal effective concentration [2]: 2.56 µM

Source: patent publication US11702426B2, “Macrocyclic deaza-purinones for the treatment of viral infections” (JANSSEN SCIENCES IRELAND UNLIMITED COMPANY, priority 2013, dated 2023)
